Laboratory results published in US20080194646A1, “Methods For Avoiding Edema in the Treatment of Metabolic, Inflammatory, and Cardiovascular Disorders” (priority 2005, published 2008).

Tested on: C57BL/6j ob/ob Mice
Test: anti-diabetic activity in C57BL/6j ob/ob mice (Example 20)
Format: in vivo
Conditions: oral gavage once a day for 1-4 days; for Potency: glucose lowering, plasma glucose 6 hours after each dose
Procedure: The anti-diabetic activities of the compounds were evaluated in the C57BL/6j ob/ob Mice model. Male, 7-9 weeks old, C57BL/6J ob/ob mice were purchased from The Jackson Laboratory (Bar Harbor, Me., USA). Animals were housed (4-5 mice/cage) under standard laboratory conditions at 22±3° C. temperature and 50±20% relative humidity, and were maintained on a diet of Purina rodent chow and water ad libitum. Prior to treatment, blood was collected from the tail vein of each animal. Mice that had non-fasting plasma glucose levels between 250 and 500 mg/dl were used. Each treatment group consisted of 8-10 mice that were distributed so that the mean glucose levels were equivalent in each group at the start of the study. Mice were dosed orally by gavage once a day for 1-4 days with vehicle and one or more dose of test compound at a dose ranging from 5 to 125 mg/kg. Compounds were delivered in a liquid formulation containing 5% (v/v) dimethyl sulfoxide (DMSO), 1% (v/v) Tween 80® and 0.9% (w/v) methylcellulose. The gavage volume was 10 ml/kg. […] Food intake and body weight were measured daily. Plasma glucose concentrations were determined colorimetrically using a commercial glucose oxidase method (Sigma Chemical Co, St. Louis, Mo., USA). Significant difference between groups (comparing drug-treated to vehicle-treated) was evaluated using the Student unpaired t-test. Table 1 provides the relative potency of some selected compounds of the invention.

## O=C(O)C(Oc1ccc(C(F)(F)F)cc1)c1ccc(C(F)(F)F)cc1 (stereo not shown) [Compound 83]
  Potency: ++ (effective for glucose lowering at the dose of ≦125 mg/kg)
  Insulin Level compared with vehicle: Lower

## O=C(O)C(Oc1ccc(C(F)(F)F)cc1Cl)c1cccc(C(F)(F)F)c1 (stereo not shown) [Compound 85]
  Potency: ++ (effective for glucose lowering at the dose of ≦125 mg/kg)
  Insulin Level compared with vehicle: Lower

## O=C(O)C(Oc1cccc(C(F)(F)F)c1)c1ccc(C(F)(F)F)cc1 (stereo not shown) [Compound 86]
  Insulin Level compared with vehicle: Lower

## O=C(O)C(Oc1ccc(C(F)(F)F)cc1Cl)c1ccc(C(F)(F)F)cc1 (stereo not shown) [Compound 89]
  Potency: ++ (effective for glucose lowering at the dose of ≦125 mg/kg)
  Insulin Level compared with vehicle: Lower

## O=C(O)C(Oc1ccc(C(F)(F)F)cn1)c1cccc(C(F)(F)F)c1 (stereo not shown) [Compound 100, (3-Trifluoromethyl-phenyl)-(5-trifluoromethyl-pyridin-2-yloxy)-acetic acid]
  Insulin Level compared with vehicle: Lower

## CC(Oc1ccc(C(F)(F)F)cc1)(C(=O)O)c1cccc(C(F)(F)F)c1 (stereo not shown) [Compound 120, 2-(4-trifluoromethyl-phenoxy)-2-(3-trifluoromethyl-phenyl)-propionic acid]
  Insulin Level compared with vehicle: Lower

## CC(Oc1ccc(C(F)(F)F)cc1)(C(=O)O)c1ccc(C(F)(F)F)cc1 (stereo not shown) [Compound 121, 2-(4-Trifluoromethyl-phenoxy)-2-(4-trifluoromethyl-phenyl)-propionic acid]
  Insulin Level compared with vehicle: Lower

## OCC(Oc1ccc(C(F)(F)F)cc1)c1ccc(C(F)(F)F)cc1 (stereo not shown) [Compound 128]
  Potency: ++ (effective for glucose lowering at the dose of ≦125 mg/kg)
  Insulin Level compared with vehicle: Lower

## CC(=O)NCCOC(=O)C(Oc1ccc(C(F)(F)F)cc1)c1cccc(C(F)(F)F)c1 (stereo not shown) [Compound 136, (4-trifluoromethyl-phenoxy)-(3-trifluoromethyl-phenyl)-acetic acid 2-acetylamino-ethyl ester]
  Insulin Level compared with vehicle: Lower

## CC(=O)NCCOC(=O)C(Oc1cccc(C(F)(F)F)c1)c1ccc(C(F)(F)F)cc1 (stereo not shown) [Compound 142]
  Insulin Level compared with vehicle: Lower

## CC(=O)NCCOC(=O)C(Oc1cc(C(F)(F)F)cc(C(F)(F)F)c1)c1ccc(C(F)(F)F)cc1 (stereo not shown) [Compound 143]
  Insulin Level compared with vehicle: Lower

## CC(=O)NCCOC(=O)C(Oc1cccc(C(F)(F)F)c1)c1cccc(C(F)(F)F)c1 (stereo not shown) [Compound 144]
  Insulin Level compared with vehicle: Lower

## CC(=O)NCCOC(=O)C(Oc1ccc(C(F)(F)F)cc1)c1ccc(C(F)(F)F)cc1 (stereo not shown) [Compound 145]
  Insulin Level compared with vehicle: Lower

## CC(=O)NCCOC(=O)C(Oc1ccccc1C(F)(F)F)c1ccc(C(F)(F)F)cc1 (stereo not shown) [Compound 146]
  Insulin Level compared with vehicle: Lower

## CC(=O)NCCOC(=O)C(Oc1cccc(C(F)(F)F)c1)c1ccccc1C(F)(F)F (stereo not shown) [Compound 147]
  Insulin Level compared with vehicle: Lower
